Holding throughout (format): in vivo
Assay [1] deals with Alopecurus myosuroides (ALOMY). The assay can be described thus: Pre-emergence biological efficacy (percentage damage). As to conditions: dose 1,000 g/ha, evaluated after 13 days, 100=total damage, 0=no damage; for pest or weed control at 1000 g/ha: Alopecurus myosuroides, 312 h. A digest of the protocol: (§1)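 Pre-emergence test: seeds sown in standard soil in pots, kept one day in a glasshouse (24/16° C. day/night, 14 h light, 65% humidity), then sprayed at 250 or 1000 g/ha from an acetone/water (50:50) formulation with 0.5% Tween 20. Damage scored after 13 days (0 = none, 100 = total).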

The subject of assay [2] is Amaranthus retoflexus (AMARE). Described as above. The following applies: dose 1,000 g/ha, evaluated after 13 days, 100=total damage, 0=no damage; for pest or weed control at 1000 g/ha: Amaranthus retroflexus, 312 h. A digest of the protocol: as §1
In assay [3] the test system is Echinochloa crus-galli (ECHCG). The description is as above. As to conditions: dose 1,000 g/ha, evaluated after 13 days, 100=total damage, 0=no damage; for pest or weed control at 1000 g/ha: Echinochloa crus-galli, 312 h. An outline of the steps: as §1
The subject of assay [4] is Ipomea hederaceae (IPOHE). Described as above. The following applies: dose 1,000 g/ha, evaluated after 13 days, 100=total damage, 0=no damage; for pest or weed control at 1000 g/ha: Ipomoea hederacea, 312 h. An outline of the steps: as §1
Assay [5] has as its system Setaria faberi (SETFA). The assay is described as above. The following applies: dose 1,000 g/ha, evaluated after 13 days, 100=total damage, 0=no damage; for pest or weed control at 1000 g/ha: Setaria faberi, 312 h. A digest of the protocol:
as §1

The test system of assay [6] is Solanum nigrum (SOLNI). The assay is described as above. As to conditions: dose 1,000 g/ha, evaluated after 13 days, 100=total damage, 0=no damage; for pest or weed control at 1000 g/ha: Solanum nigrum, 312 h. An outline of the steps:
as §1

Assay [7] has as its system Alopecurus myosuroides (ALOMY). The assay can be described thus: Post-emergence biological efficacy (percentage damage). The following applies: dose 1,000 g/ha, evaluated after 13 days, 100=total damage, 0=no damage; for pest or weed control at 1000 g/ha: Alopecurus myosuroides, 312 h. An outline of the steps: (§2)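 Post-emergence glasshouse test: plants sprayed 8 days after sowing (24/16 °C day/night, 14 h light, 65% humidity) at 250 or 1000 g/ha, formulated in acetone/water 50:50 with 0.5% Tween 20. Damage scored visually 13 days after treatment on a 0–100 scale (100 = total damage).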

In assay [8] the test system is Amaranthus retoflexus (AMARE). The assay is described as above. The following applies: dose 1,000 g/ha, evaluated after 13 days, 100=total damage, 0=no damage; for pest or weed control at 1000 g/ha: Amaranthus retroflexus, 312 h. An outline of the steps:
as §2

Assay [9] relates to Echinochloa crus-galli (ECHCG). Described as above. The following applies: dose 1,000 g/ha, evaluated after 13 days, 100=total damage, 0=no damage; for pest or weed control at 1000 g/ha: Echinochloa crus-galli, 312 h. An outline of the steps: as §2
The subject of assay [10] is Ipomea hederaceae (IPOHE). The assay is described as above. As to conditions: dose 1,000 g/ha, evaluated after 13 days, 100=total damage, 0=no damage; for pest or weed control at 1000 g/ha: Ipomoea hederacea, 312 h. An outline of the steps: as §2
Assay [11] concerns Setaria faberi (SETFA). The assay is described as above. As to conditions: dose 1,000 g/ha, evaluated after 13 days, 100=total damage, 0=no damage; for pest or weed control at 1000 g/ha: Setaria faberi, 312 h. A digest of the protocol: as §2
In assay [12] the test system is Solanum nigrum (SOLNI). Described as above. The following applies: dose 1,000 g/ha, evaluated after 13 days, 100=total damage, 0=no damage; for pest or weed control at 1000 g/ha: Solanum nigrum, 312 h. An outline of the steps: as §2

For orientation: pest or weed control means the degree to which the test organism was suppressed or injured, in per cent. A higher pest or weed control goes with strong suppression. With `C=Cc1c(N)nc(-c2ccc(Cl)c(N(C)C)c2F)nc1C(=O)OCc1ccccc1` [Compound 33-336, 4-Amino-2-(4-chloro-3-dimethylamino-2-fluorophenyl)-5-ethenyl-6-phenylmethoxy-carbonyl-pyrimidine], the pest or weed control at 1000 g/ha worked out at 70% in assay [1]; 100% in [2]; 90% in [3]; 20% in assay [4]; 80% in the assay on Setaria faberi (SETFA) [5]; 80% in the assay with Solanum nigrum (SOLNI) [6]. Further, the pest or weed control at 1000 g/ha worked out at 90% in assay [7]; 100% in assay [8]; 90% in assay [9]; 40% in assay [10]; 90% with Setaria faberi (SETFA) [11]; 90% with Solanum nigrum (SOLNI) [12].
For the compound `C=Cc1c(N)nc(-c2ccc(Cl)c(N(C)C)c2F)nc1C(=O)OCCCC` [Compound 33-391], the pest or weed control at 1000 g/ha is 70% in [1]; 100% in assay [2]; 100% in [3]; 20% in assay [4]; 90% with Setaria faberi (SETFA) [5]; 100% in the assay on Solanum nigrum (SOLNI) [6]. Further, the pest or weed control at 1000 g/ha in assay [7] stood at 70%; in assay [8], 100%; in assay [9], 90%; in assay [10] it was 80%; with Setaria faberi (SETFA) [11], 90%; in the assay with Solanum nigrum (SOLNI) [12] it was 80%.
As to `C=Cc1c(N)nc(-c2ccc(Cl)c(N(C)C)c2F)nc1C(=O)OCCCCCCCC` [Compound 33-392], the “Percentage damage ALOMY, pre-emergence” value in assay [1] is reported as 70%. Also, in assay [2], the “Percentage damage AMARE, pre-emergence” value is given as 100%. In addition, in assay [3], the “Percentage damage ECHCG, pre-emergence” value is listed as 100%. In assay [4], the “Percentage damage IPOHE, pre-emergence” value is recorded as 0%. Further, the “Percentage damage SETFA, pre-emergence” value in the assay on Setaria faberi (SETFA) [5] was found to be 90%. The “Percentage damage SOLNI, pre-emergence” value with Solanum nigrum (SOLNI) [6] was 80%. Besides, in assay [7], the “Percentage damage ALOMY, post-emergence” value turned out to be 70%. Besides, the “Percentage damage AMARE, post-emergence” value in assay [8] came out at 100%. In addition, in [9], the “Percentage damage ECHCG, post-emergence” value is listed as 80%. The “Percentage damage IPOHE, post-emergence” value in assay [10] was found to be 80%. Also, the “Percentage damage SETFA, post-emergence” value with Setaria faberi (SETFA) [11] was found to be 60%. For the same compound, in the assay with Solanum nigrum (SOLNI) [12], the “Percentage damage SOLNI, post-emergence” value was found to be 90%.
On to `C=Cc1c(N)nc(-c2ccc(Cl)c(N(C)C)c2F)nc1C(=O)OCC(CC)CCCC` (stereo not drawn) [Compound 33-393, 4-Amino-2-(4-chloro-3-dimethylamino-2-fluorophenyl)-5-ethenyl-6-(2-ethylhexyloxy) carbonyl-pyrimidine], for which the pest or weed control at 1000 g/ha in assay [1] was 0%; in assay [2] it was 20%; in assay [3] it was 0%; in [4], 0%; in the assay on Setaria faberi (SETFA) [5] it was 0%; with Solanum nigrum (SOLNI) [6] it was 20%. Besides, the pest or weed control at 1000 g/ha in [7] was 0%; in assay [8], 70%; in [9], 20%; in assay [10], 70%; with Setaria faberi (SETFA) [11] it was 0%; in the assay with Solanum nigrum (SOLNI) [12], 70%.
`C=Cc1c(N)nc(-c2ccc(Cl)c(N(C)C)c2F)nc1C(=O)OC(C)c1ccccc1` (stereo not drawn) [Compound 33-394, 4-Amino-2-(4-chloro-3-dimethylamino-2-fluorophenyl)-5-ethenyl-6-(1-phenyl-ethoxy)carbonyl-pyrimidine]: the pest or weed control at 1000 g/ha is 20% in [1]; 40% in assay [2]; 30% in assay [3]; 0% in assay [4]; 30% in the assay with Setaria faberi (SETFA) [5]; 40% in the assay on Solanum nigrum (SOLNI) [6]. The pest or weed control at 1000 g/ha in assay [7] is 30%; in [8] it was 100%; in assay [9] it was 60%; in [10], 30%; with Setaria faberi (SETFA) [11] it was 50%; in the assay with Solanum nigrum (SOLNI) [12], 80%.
For the compound `C=CCOC(=O)c1nc(-c2ccc(Cl)c(N(C)C)c2F)nc(N)c1C=C` [Compound 33-395, 4-Amino-2-(4-chloro-3-dimethylamino-2-fluorophenyl)-5-ethenyl-6-(prop-2-enyloxy)carbonyl-pyrimidine], the pest or weed control at 1000 g/ha is 60% in [1]; 100% in assay [2]; 90% in assay [3]; 30% in [4]; 80% in the assay with Setaria faberi (SETFA) [5]; 100% in the assay with Solanum nigrum (SOLNI) [6]. Moreover, the pest or weed control at 1000 g/ha in [7] turned out to be 70%; in assay [8], 100%; in assay [9], 100%; in assay [10], 30%; in the assay on Setaria faberi (SETFA) [11] it was 100%; in the assay on Solanum nigrum (SOLNI) [12] it was 100%.
On to `C=Cc1c(N)nc(-c2ccc(Cl)c(N(C)C)c2F)nc1C(=O)OCCOCC` [Compound 33-396, 4-Amino-2-(4-chloro-3-dimethylamino-2-fluorophenyl)-5-ethenyl-6-(2-ethoxy-ethoxy)carbonyl-pyrimidine], for which the pest or weed control at 1000 g/ha was found to be 70% in assay [1]; 100% in assay [2]; 90% in [3]; 50% in assay [4]; 80% with Setaria faberi (SETFA) [5]; 90% with Solanum nigrum (SOLNI) [6]. Besides, the pest or weed control at 1000 g/ha was found to be 70% in assay [7]; 100% in [8]; 100% in assay [9]; 60% in assay [10]; 90% in the assay with Setaria faberi (SETFA) [11]; 90% in the assay on Solanum nigrum (SOLNI) [12].
In the case of `C=Cc1c(N)nc(-c2ccc(Cl)c(N(C)C)c2F)nc1C(=O)OCCOCCCC` [Compound 33-397], the pest or weed control at 1000 g/ha in assay [1] was found to be 80%; in assay [2], 100%; in assay [3] it was 100%; in [4], 50%; in the assay on Setaria faberi (SETFA) [5], 90%; with Solanum nigrum (SOLNI) [6] it was 100%. Further, the pest or weed control at 1000 g/ha is 80% in [7]; 100% in [8]; 90% in assay [9]; 80% in assay [10]; 90% with Setaria faberi (SETFA) [11]; 90% in the assay on Solanum nigrum (SOLNI) [12].
In the case of `C=Cc1c(N)nc(-c2ccc(F)cc2)nc1C(=O)OC` [Compound 41-61, 4-Amino-5-ethenyl-2-(4-fluorophenyl)-6-methoxycarbonyl-pyrimidine], the pest or weed control at 1000 g/ha in [1] turned out to be 20%; in assay [2], 100%; in assay [3], 10%; in assay [4] it was 40%; in the assay on Setaria faberi (SETFA) [5], 10%; in the assay on Solanum nigrum (SOLNI) [6], 0%. The pest or weed control at 1000 g/ha in assay [7] is 20%; in assay [8], 100%; in assay [9], 10%; in assay [10] it was 60%; in the assay with Setaria faberi (SETFA) [11], 10%; with Solanum nigrum (SOLNI) [12], 90%.
As to `C=Cc1c(N)nc(-c2ccc(F)c(OC)c2)nc1C(=O)OC` [Compound 42-61, 4-Amino-5-ethenyl-2-(4-fluoro-3-methoxyphenyl)-6-methoxycarbonyl-pyrimidine], the pest or weed control at 1000 g/ha in [1] was determined as 10%; in assay [2], 60%; in assay [3], 10%; in [4], 0%; in the assay with Setaria faberi (SETFA) [5], 20%; with Solanum nigrum (SOLNI) [6] it was 20%. Further, the pest or weed control at 1000 g/ha in assay [7] is 30%; in [8], 100%; in [9], 30%; in assay [10], 10%; in the assay on Setaria faberi (SETFA) [11], 40%; in the assay on Solanum nigrum (SOLNI) [12], 30%.

Source of the values: patent US20120053053A1, “PYRIMIDINE DERIVATIVES AND THEIR USE AS HERBICIDES” (SYNGENTA CROP PROTECTION, LLC, priority 2009, published 2012).
